PMC8658794, “Design, Synthesis, and Biological Evaluation of HDAC Degraders with CRBN E3 Ligase Ligands” (Molecules, 2021)
Read-outs that look alike come from different tables or passages of the source.

Assays:
HDAC1 [1] = molecular target: T1, HDAC1 (Homo sapiens, UniProt Q13547); test: In vitro HDAC inhibition assay (fluorogenic substrate), HDAC1; assay type: biochemical; design: All three full-length rhHDACs were expressed in insect High5 cells using a baculoviral expression system; His6; GST; made in house; host or cells: insect High5 cells (baculovirus); settings: recombinant human HDAC1; mean ± SD of three independent determinations
Experimental: (§1) All three full-length rhHDACs were expressed in insect High5 cells using a baculoviral expression system, and all the His6-tagged and GST-fusion proteins were purified using Ni-NTA (QIAGEN). […] In brief, the HDAC assay mixture contained an HDAC substrate (5–50 μM, 5 μl), rhHDAC isoforms (20–200 nM) and an inhibitor (1 μl). The positive controls contained all the above components except the inhibitor. The negative controls contained neither an enzyme nor an inhibitor. The HDAC6 assay components were incubated at room temperature for 3 h, and HDAC 1 and 3 were incubated for 24 h. […] The plates were incubated for 30 min at room temperature to allow the fluorescence signal to develop.

HDAC6 [2] = molecular target: T2, HDAC6 (Homo sapiens, UniProt Q9UBN7); test: In vitro HDAC inhibition assay (fluorogenic substrate), HDAC6; assay type: biochemical; design: All three full-length rhHDACs were expressed in insect High5 cells using a baculoviral expression system; His6; GST; made in house; host or cells: insect High5 cells (baculovirus); settings: recombinant human HDAC6; mean ± SD of three independent determinations
T2 sequence (Q9UBN7 1-1215): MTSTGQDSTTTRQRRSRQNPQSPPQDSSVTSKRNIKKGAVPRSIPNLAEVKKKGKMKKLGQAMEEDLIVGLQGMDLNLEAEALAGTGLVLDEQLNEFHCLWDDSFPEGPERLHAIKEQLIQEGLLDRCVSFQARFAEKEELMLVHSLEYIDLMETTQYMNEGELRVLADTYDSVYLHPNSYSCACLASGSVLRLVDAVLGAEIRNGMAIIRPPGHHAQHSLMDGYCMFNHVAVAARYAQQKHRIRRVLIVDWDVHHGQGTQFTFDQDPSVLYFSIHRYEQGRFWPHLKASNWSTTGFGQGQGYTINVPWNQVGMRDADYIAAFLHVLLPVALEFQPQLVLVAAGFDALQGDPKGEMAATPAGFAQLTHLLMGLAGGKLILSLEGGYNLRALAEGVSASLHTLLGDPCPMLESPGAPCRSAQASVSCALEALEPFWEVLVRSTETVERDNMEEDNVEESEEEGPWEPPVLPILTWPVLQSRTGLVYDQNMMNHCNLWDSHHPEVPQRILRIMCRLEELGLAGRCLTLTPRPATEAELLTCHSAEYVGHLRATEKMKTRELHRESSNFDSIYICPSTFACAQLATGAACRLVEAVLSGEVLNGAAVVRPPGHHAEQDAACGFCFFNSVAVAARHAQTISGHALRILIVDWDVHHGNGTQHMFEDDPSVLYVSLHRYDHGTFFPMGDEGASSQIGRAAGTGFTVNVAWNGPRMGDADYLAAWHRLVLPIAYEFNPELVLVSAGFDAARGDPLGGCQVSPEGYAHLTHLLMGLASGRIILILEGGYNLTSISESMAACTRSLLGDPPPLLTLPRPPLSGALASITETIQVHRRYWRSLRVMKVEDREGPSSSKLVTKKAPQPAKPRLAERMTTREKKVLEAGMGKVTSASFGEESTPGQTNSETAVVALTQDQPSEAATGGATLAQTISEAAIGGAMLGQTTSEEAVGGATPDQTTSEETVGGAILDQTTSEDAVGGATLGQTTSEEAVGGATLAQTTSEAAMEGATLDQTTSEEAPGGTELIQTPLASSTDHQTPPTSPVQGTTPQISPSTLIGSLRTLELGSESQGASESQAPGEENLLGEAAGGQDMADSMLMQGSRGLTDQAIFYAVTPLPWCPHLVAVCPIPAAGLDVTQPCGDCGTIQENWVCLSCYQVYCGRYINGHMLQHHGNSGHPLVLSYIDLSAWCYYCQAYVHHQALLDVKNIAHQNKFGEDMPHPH
Experimental: as §1

HDAC3 [3] = molecular target: T3, HDAC3 (Homo sapiens, UniProt O15379); test: In vitro HDAC inhibition assay (fluorogenic substrate), HDAC3; assay type: biochemical; design: All three full-length rhHDACs were expressed in insect High5 cells using a baculoviral expression system; His6; GST; made in house; host or cells: insect High5 cells (baculovirus); settings: recombinant human HDAC3; mean ± SD of three independent determinations
Experimental: as §1
Target sequence in this assay (O15379 whole entry): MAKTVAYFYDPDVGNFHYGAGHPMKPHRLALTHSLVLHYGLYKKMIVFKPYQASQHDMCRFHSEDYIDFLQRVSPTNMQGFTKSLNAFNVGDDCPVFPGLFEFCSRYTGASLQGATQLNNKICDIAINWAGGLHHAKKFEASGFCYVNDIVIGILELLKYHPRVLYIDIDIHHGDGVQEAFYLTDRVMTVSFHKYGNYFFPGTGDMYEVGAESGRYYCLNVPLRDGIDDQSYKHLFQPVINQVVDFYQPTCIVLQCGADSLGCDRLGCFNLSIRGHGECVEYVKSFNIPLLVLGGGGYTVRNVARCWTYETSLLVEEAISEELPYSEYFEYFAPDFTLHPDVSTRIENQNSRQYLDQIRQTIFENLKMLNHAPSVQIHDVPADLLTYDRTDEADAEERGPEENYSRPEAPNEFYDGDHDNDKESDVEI
Target sequence in this assay (Q9Y618 395-489 partner limits assumed): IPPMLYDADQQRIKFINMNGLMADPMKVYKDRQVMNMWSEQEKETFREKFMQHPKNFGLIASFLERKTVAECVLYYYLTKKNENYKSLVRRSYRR

MM.1S cell line = test: In vitro anti-proliferative activity, MTS assay; assay type: cell-based; settings: for IC50: Homo sapiens, MM1.S
Experimental: The cells were seeded in 96 well plates at a proper density in growth media. After 24 h, a range of concentrations of the test compounds was added and the plates were incubated at 37 °C for 72 h. The cell proliferation was determined by the MTS assay. After 3 h, the absorbance was collected using SpectraMAX 340. The IC50 values were calculated by fitting a concentration–response curve using a SoftMax pro-based four-parameter method.

HDAC6 [4] = molecular target: T2, HDAC6; test: Western blot of HDAC6 protein level (degradation) in MM.1S cells; assay type: cell-based; design: endogenous in cells; host or cells: MM.1S; settings: 3 h; for degradation of HDAC6 (immunoblot): different concentrations
Experimental: (§2) The 2 × 10^6 MM.1S cells (multiple myeloma) were cultured in a cell culture plate and incubated for 1 h. Next, the MM.1S cells were treated with compounds at different concentrations for 3 h. Subsequently, the cells were collected, washed, lysed in a Ripa buffer containing a sample reducing agent, and analyzed using SDS/PAGE. Finally, the gel was blotted and the total HDAC levels were detected through standard Western blot.

tubulin acetylation = test: Tubulin acetylation in MM.1S cells; assay type: cell-based
HDAC3 [5] = molecular target: T3, HDAC3; test: Western blot of HDAC3 protein level (degradation) in MM.1S cells; assay type: cell-based; design: endogenous in cells; host or cells: MM.1S; settings: 3 h, different concentrations
Experimental: as §2
Target sequence in this assay (O15379 whole entry): as the sequence (O15379 whole entry) above

HDAC1 [6] = molecular target: T1, HDAC1; test: Western blot of HDAC1 protein level (degradation) in MM.1S cells; assay type: cell-based; design: endogenous in cells; host or cells: MM.1S; settings: 3 h, different concentrations
Experimental: as §2

[7] = MM.1S, 72 h, MTS, mean ± SD of three independent determinations, read-out: IC50 (μM ± SD) anti-proliferative activity against MM.1S cell line

T1 sequence (Q13547 whole entry, the tested form may be a part, canonical isoform): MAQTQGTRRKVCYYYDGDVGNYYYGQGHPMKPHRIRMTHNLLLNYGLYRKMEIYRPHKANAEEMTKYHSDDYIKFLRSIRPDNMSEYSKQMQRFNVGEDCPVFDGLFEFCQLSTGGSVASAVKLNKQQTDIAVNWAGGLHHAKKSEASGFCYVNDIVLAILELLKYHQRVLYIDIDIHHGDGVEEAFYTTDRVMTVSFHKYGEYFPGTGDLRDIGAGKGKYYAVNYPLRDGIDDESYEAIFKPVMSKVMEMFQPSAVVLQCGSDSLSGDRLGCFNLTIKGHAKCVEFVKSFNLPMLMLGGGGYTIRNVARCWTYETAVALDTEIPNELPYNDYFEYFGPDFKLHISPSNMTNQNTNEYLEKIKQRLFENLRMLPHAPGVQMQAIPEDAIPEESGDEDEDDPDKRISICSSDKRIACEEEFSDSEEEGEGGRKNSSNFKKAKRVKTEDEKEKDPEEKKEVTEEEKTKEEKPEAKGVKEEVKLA

SMILES	IC50 (HDAC1 [1]) [µM]	IC50 (HDAC6 [2]) [µM]	IC50 (HDAC3 [3]) [µM]	IC50 (MM.1S cell line; [7]) [µM]	IC50 (MM.1S cell line; MM.1S cells, printed beside the HDAC6 immunoblot, read-out: IC50 printed in the picture of Figure 4B) [µM]	anti-proliferative potency relative to SAHA (MM.1S cell line; MM.1S cell line)	HDAC6 degradation compared with HDAC1 and HDAC3 (immunoblot) (HDAC6 [4]; 0.12 μM)	degradation of HDAC6 (immunoblot) (HDAC6 [4])	increase in tubulin acetylation (tubulin acetylation)	degradation of HDAC3 (immunoblot) (HDAC3 [5])	degradation of HDAC1 (immunoblot) (HDAC1 [6])
O=C(CCCCCC(=O)Nc1cccc2c1CN(C1CCC(=O)NC1=O)C2=O)NO (stereo not drawn) [9a, N^1-(2-(2,6-Dioxopiperidin-3-yl)-1-oxoisoindolin-4-yl)-N^7-hydroxyheptanediamide]	2.31 ± 0.46	1.98 ± 0.69	2.2 ± 0.29	–	–	–	–	–	–	–	–
O=C(CCCCCCC(=O)Nc1cccc2c1CN(C1CCC(=O)NC1=O)C2=O)NO (stereo not drawn) [9b, N^1-(2-(2,6-Dioxopiperidin-3-yl)-1-oxoisoindolin-4-yl)-N^8-hydroxyoctanediamide]	0.38 ± 0.14	1.46 ± 1.02	0.47 ± 0.01	> 10	–	–	–	–	–	–	–
O=C(CCCCCCCC(=O)Nc1cccc2c1CN(C1CCC(=O)NC1=O)C2=O)NO (stereo not drawn) [9c, N^1-(2-(2,6-Dioxopiperidin-3-yl)-1-oxoisoindolin-4-yl)-N^9-hydroxynonanediamide]	1.13 ± 0.03	3.67 ± 1.02	1.06 ± 0.2	–	–	–	–	–	–	–	–
O=C(CCCCCCCCC(=O)Nc1cccc2c1CN(C1CCC(=O)NC1=O)C2=O)NO (stereo not drawn) [9d, N^1-(2-(2,6-Dioxopiperidin-3-yl)-1-oxoisoindolin-4-yl)-N^10-hydroxydecanediamide]	0.72 ± 0.18	2.94 ± 0.62	0.75 ± 0.06	–	–	–	–	–	–	–	–
O=C(CCCCCCC(=O)Nc1cccc2c1C(=O)N(C1CCC(=O)NC1=O)C2=O)NO (stereo not drawn) [9e, N^1-(2-(2,6-Dioxopiperidin-3-yl)-1,3-dioxoisoindolin-4-yl)-N^8-hydroxyoctanediamide]	2.7 ± 0.36	0.42 ± 0.18	0.33 ± 0.01	> 10	–	–	–	–	–	–	–
O=C(CCCCCNC(=O)Nc1cccc2c1CN(C1CCC(=O)NC1=O)C2=O)NO (stereo not drawn) [15a, 6-(3-(2-(2,6-Dioxopiperidin-3-yl)-1-oxoisoindolin-4-yl)ureido)-N-hydroxyhexanamide]	–	5.96 ± 1.43	0.27 ± 0.04	> 10	–	–	–	–	–	–	–
O=C(CCCCCCNC(=O)Nc1cccc2c1CN(C1CCC(=O)NC1=O)C2=O)NO (stereo not drawn) [15b, 7-(3-(2-(2,6-Dioxopiperidin-3-yl)-1-oxoisoindolin-4-yl)ureido)-N-hydroxyheptanamide]	0.57 ± 0.04	1.67 ± 0.41	0.58 ± 0.04	–	–	–	–	–	–	–	–
O=C(CCCCCCCCNC(=O)Nc1cccc2c1CN(C1CCC(=O)NC1=O)C2=O)NO (stereo not drawn) [15c, 9-(3-(2-(2,6-Dioxopiperidin-3-yl)-1-oxoisoindolin-4-yl)ureido)-N-hydroxynonanamide]	0.82 ± 0.06	3.09 ± 0.54	0.96 ± 0.13	–	–	–	–	–	–	–	–
O=C(CCCCCNC(=O)Nc1cccc2c1C(=O)N(C1CCC(=O)NC1=O)C2=O)NO (stereo not drawn) [15d, 6-(3-(2-(2,6-Dioxopiperidin-3-yl)-1,3-dioxoisoindolin-4-yl)ureido)-N-hydroxyhexanamide]	0.44 ± 0.1	5.28 ± 1.42	0.22 ± 0.02	> 10	–	–	–	–	–	–	–
Nc1ccccc1NC(=O)c1ccc(COc2cccc3c2CN(C2CCC(=O)NC2=O)C3=O)cc1 (stereo not drawn) [21a, N-(2-Aminophenyl)-4-(((2-(2,6-dioxopiperidin-3-yl)-1-oxoisoindolin-4-yl)oxy)methyl)benzamide]	1.6 ± 0.54	> 20	0.56 ± 0.02	0.043 ± 0.02	0.04	approximately five times more potent	superior HDAC6 degradation efficacies	dose-dependent manner	not observed	–	–
Nc1ccccc1NC(=O)c1ccc(COc2cccc3c2C(=O)N(C2CCC(=O)NC2=O)C3=O)cc1 (stereo not drawn) [21b, N-(2-Aminophenyl)-4-(((2-(2,6-dioxopiperidin-3-yl)-1,3-dioxoisoindolin-4-yl)oxy)methyl)benzamide]	1.2 ± 0.44	> 20	0.28 ± 0.04	0.541 ± 0.108	–	–	–	almost no degradation	–	almost no degradation	almost no degradation
O=C1CCC(N2Cc3c(OCc4ccc(C(=O)NO)cc4)cccc3C2=O)C(=O)N1 (stereo not drawn) [23a, 4-(((2-(2,6-Dioxopiperidin-3-yl)-1-oxoisoindolin-4-yl)oxy)methyl)-N-hydroxybenzamide]	8.32 ± 2.1	0.38 ± 0.1	0.65 ± 0.03	> 10	–	–	–	–	–	–	–
O=C1CCC(N2C(=O)c3cccc(OCc4ccc(C(=O)NO)cc4)c3C2=O)C(=O)N1 (stereo not drawn) [23b, 4-(((2-(2,6-Dioxopiperidin-3-yl)-1,3-dioxoisoindolin-4-yl)oxy)methyl)-N-hydroxybenzamide]	2.23 ± 0.3	> 20	0.76 ± 0.1	1.34 ± 0.4	–	–	–	almost no degradation	–	almost no degradation	almost no degradation
